Reference: ChEMBL document CHEMBL1146854, “Estimation of the hydrophobicity of 2,4-diphenyl-1,3-oxazoline analogs and QSAR analysis of their ovicidal activity against Tetranychus [corrected] urticae” (Bioorg Med Chem Lett, 2006)
≈ marks a conversion by molar mass, not a printed value.

What was measured:
[1] = Partition coefficient, log P of the compound; format: physicochemical; settings: octanol/water
Tetranychus urticae = test: Ovicidal activity against Tetranychus urticae; format: functional

Clc1ccc(C2=NC(c3ccccc3)CO2)cc1 (stereo unspecified)
logP [1]: 4.48
LC50 (Tetranychus urticae): 100 µg/mL (≈ 388 µM)

Fc1cccc(Cl)c1C1=NC(c2ccccc2)CO1 (stereo unspecified)
logP [1]: 3.45
LC50 (Tetranychus urticae): 0.01 µg/mL (≈ 0.0363 µM)

c1ccc(C2=NC(c3ccccc3)CO2)cc1 (stereo unspecified)
logP [1]: 3.56
LC50 (Tetranychus urticae): 10 µg/mL (≈ 44.8 µM)

CSc1ccccc1C1=NC(c2ccccc2)CO1 (stereo unspecified)
logP [1]: 3.5
LC50 (Tetranychus urticae): 100 µg/mL (≈ 371 µM)

COc1ccc(C2=NC(c3ccccc3)CO2)cc1 (stereo unspecified)
logP [1]: 3.78
LC50 (Tetranychus urticae): 100 µg/mL (≈ 395 µM)

Clc1cccc(Cl)c1C1=NC(c2ccccc2)CO1 (stereo unspecified)
logP [1]: 3.69
LC50 (Tetranychus urticae): 1 µg/mL (≈ 3.42 µM)

CCOc1ccccc1C1=NC(c2ccccc2)CO1 (stereo unspecified)
logP [1]: 4.22
LC50 (Tetranychus urticae): > 1000 µg/mL

Clc1cccc(C2=NC(c3ccccc3)CO2)c1 (stereo unspecified)
logP [1]: 4.44
LC50 (Tetranychus urticae): 100 µg/mL (≈ 388 µM)

Fc1ccccc1C1=NC(c2ccccc2)CO1 (stereo unspecified)
logP [1]: 3.51
LC50 (Tetranychus urticae): 10 µg/mL (≈ 41.4 µM)

Clc1cccc(C2=NC(c3ccccc3)CO2)c1Cl (stereo unspecified)
logP [1]: 4.28
LC50 (Tetranychus urticae): 10 µg/mL (≈ 34.2 µM)

Brc1ccccc1C1=NC(c2ccccc2)CO1 (stereo unspecified)
logP [1]: 3.69
LC50 (Tetranychus urticae): 0.1 µg/mL (≈ 0.331 µM)

Clc1ccccc1C1=NC(c2ccccc2)CO1 (stereo unspecified)
logP [1]: 3.56
LC50 (Tetranychus urticae): 1 µg/mL (≈ 3.88 µM)

COc1ccccc1C1=NC(c2ccccc2)CO1 (stereo unspecified)
logP [1]: 3.76
LC50 (Tetranychus urticae): 10 µg/mL (≈ 39.5 µM)

Cc1cccc(C)c1-c1ncco1
logP [1]: 2.21

Fc1cccc(F)c1C1=NC(c2ccccc2)CO1 (stereo unspecified)
logP [1]: 3.01
LC50 (Tetranychus urticae): 1 µg/mL (≈ 3.86 µM)

Clc1ccc(C2=NC(c3ccccc3)CO2)c(Cl)c1 (stereo unspecified)
logP [1]: 4.4
LC50 (Tetranychus urticae): 10 µg/mL (≈ 34.2 µM)

O=[N+]([O-])c1ccccc1-c1ncco1
logP [1]: 1.27

Fc1cccc(F)c1-c1ncco1
logP [1]: 1.45

COc1cccc(C2=NC(c3ccccc3)CO2)c1 (stereo unspecified)
logP [1]: 3.77
LC50 (Tetranychus urticae): > 1000 µg/mL

Fc1cccc(Cl)c1-c1ncco1
logP [1]: 1.89

FC(F)(F)c1ccccc1-c1ncco1
logP [1]: 2.15

Cc1ccc(C2=NC(c3ccccc3)CO2)cc1 (stereo unspecified)
logP [1]: 4.11
LC50 (Tetranychus urticae): > 1000 µg/mL

O=[N+]([O-])c1ccccc1C1=NC(c2ccccc2)CO1 (stereo unspecified)
logP [1]: 2.83
LC50 (Tetranychus urticae): 100 µg/mL (≈ 373 µM)

Cc1cccc(C2=NC(c3ccccc3)CO2)c1 (stereo unspecified)
logP [1]: 4.11
LC50 (Tetranychus urticae): > 1000 µg/mL

Cc1ccccc1C1=NC(c2ccccc2)CO1 (stereo unspecified)
logP [1]: 3.68
LC50 (Tetranychus urticae): 100 µg/mL (≈ 421 µM)

Clc1ccc(Cl)c(C2=NC(c3ccccc3)CO2)c1 (stereo unspecified)
logP [1]: 4.4
LC50 (Tetranychus urticae): 100 µg/mL (≈ 342 µM)

CCSc1ccccc1C1=NC(c2ccccc2)CO1 (stereo unspecified)
logP [1]: 4.04
LC50 (Tetranychus urticae): 100 µg/mL (≈ 353 µM)

FC(F)(F)c1ccccc1C1=NC(c2ccccc2)CO1 (stereo unspecified)
logP [1]: 3.71
LC50 (Tetranychus urticae): 100 µg/mL (≈ 343 µM)

c1ccc(Oc2ccccc2C2=NC(c3ccccc3)CO2)cc1 (stereo unspecified)
logP [1]: 5.61
LC50 (Tetranychus urticae): 100 µg/mL (≈ 317 µM)

Ic1ccccc1C1=NC(c2ccccc2)CO1 (stereo unspecified)
logP [1]: 3.86
LC50 (Tetranychus urticae): 1 µg/mL (≈ 2.86 µM)

Ic1ccccc1-c1ncco1
logP [1]: 2.3
